From US11447445B2, “Diabetes and metabolic syndrome treatment with a novel dual modulator of soluble epoxide hydrolase and peroxisome proliferator-activated receptors” (priority 2015, dated 2022)
In brackets after ≈: the same amount, converted by molar mass.

Assays:
3T3-L1 fibroblasts = test: Adipocyte differentiation of murine 3T3-L1 cells (Oil Red O staining); format: cell-based; settings: 1c 1-10 μM; CIU 10 μM
Method: 3T3-L1 cells were subcultured in DMEM containing 10% newborn calf serum in a humidified atmosphere at 37° C., 5% CO2. […] Briefly, cells were seeded in 6-well plates (2.5×10^6/well). Differentiation was started at day 3 by addition of 1 μg/ml insulin, 0.25 dexamethasone and 0.5 mM isobutylmethylxanthine in DMEM supplemented with 10% fetal calf serum. At day 5 medium was replaced by medium containing only insulin for 2 more days. After this, cells were kept for lipid droplet accumulation in basal medium without additions until day 15.

PPARα = molecular target: T1, PPARα (Homo sapiens, UniProt Q07869); format: cell-based
T1 construct: expressed in transfected cells; host or cells: COS-7

[1] = In vitro drug metabolism in rat liver microsomes; format: in vitro ADME; settings: 10 μM, 1 h incubation
Method: The incubation was performed in a shaking water bath at 37° C. The reaction was stopped by the addition of 500 μl ice-cold methanol at 0, 15, 30 and 60 min. The samples were centrifuged at 10 000 g for 5 min at 4° C. The supernatants were analysed and quantified by HPLC. Control samples were always performed to check the stability of the compounds in the reaction mixture. First control was without NADPH, which is needed for the enzymatic activity of the microsomes. Second control was with inactivated microsomes (microsomes that were incubated for 20 min at 90° C.). Third control was without test compounds (to determine the baseline). As positive control, a solution of 7-ethoxycoumarin (1 mM) was used. The final concentration of the control compound, under assay conditions, was again 10 μM. The amounts of the test compounds were quantified by an external calibration curve.

PPARδ = molecular target: T2, PPARδ (Homo sapiens, UniProt Q03181); test: PPAR transactivation assay in COS-7 cells (Gal4-hPPAR-LBD, luciferase); format: cell-based; settings: i.a. = inactive
T2 construct: expressed in transfected cells; host or cells: COS-7

[2] = test system: human primary preadipocytes; test: Adipocyte differentiation of human primary preadipocytes (Oil Red O staining); format: cell-based; settings: 1c 1-10 μM; CIU 10 μM
Method: (§1) Human primary preadipocytes were obtained from stromal vascular fraction of subcutaneous fat from anonymous donors undergoing elective cosmetic surgery. Adipose tissue was digested by collagenase solution (0.3 U/ml in 1% BSA/PBS) for 45 min at 37° C. with constant shaking. Floating mature adipocytes were removed and the pellet containing the stromal vascular fraction was resuspended in erythrocyte lysis buffer. […] After 4 days the medium was changed to 3FC medium (QuickDiff medium without dexamethasone, IBMX and rosiglitazone). Adipocytes were cultured for additional 14 days before medium was changed to basal medium consisting of DMEM/Ham's F12 with biotin and panthotenate. This investigation conforms to the ethical principles outlined in the Declaration of Helsinki and was approved by the university ethics committee (Ethik-Kommission des Fachbereichs Medizin der Goethe-Universitat Frankfurt am Main). Total RNA was isolated using PeqGold RNAPure (Peqlab) according to manufacturer's instructions and was transcribed to cDNA using Maxima First Strand cDNA synthesis kit (Thermo Scientific), following manufacturer's instructions. Quantitative PCR was performed with iQ SYBR green Supermix (Bio-Rad) using a CFX96 (Bio-Rad) system. Expression was normalized to actin RNA.

[3] = after p.o. 30 mg/kg bw of 1c
Method: Blood was sampled 15 min, 30 min, 1 h, 2 h, 4 h and 8 h after test item application and only 8 h after vehicle application. Each drug treated mouse was sampled twice (0.25 and 0.5 h, 1 and 2 h, 4 and 8 h) via retro orbital puncture. Blood was collected in tubes containing lithium-heparin, stored on ice and subsequently centrifuged at 6000 rpm for 10 minutes at 4° C. (Heraeus biofuge fresco). The plasma was prepared within 45 min after sampling and kept at −20° C. until being assayed. For further kinetic and dynamic analysis the tissues (brain, liver, abdominal fat) were collected 30 min, 2h and 8 h post dose, after the second plasma sampling of each drug treated mouse. Tissue of the vehicle group was sampled only once, 8 h post dose. A volume of 40 μl acetonitrile containing the internal standard (300 ng/ml Diazepam) was added to 20 μl of mouse plasma sample, plasma calibration standard and plasma QC samples. Samples were vigorously shaken and centrifuged for 10 minutes at 6000 g and 20° C. The particle free supernatant was diluted 1:1 with water. An aliquot was transferred to 200 μl sampler vials and subsequently subjected to LC MS with an injection volume of 20 pl. The brain samples were homogenized in PBS (1+1, w/v) using the Precellys 24/Dual homogenizer. A volume of 20 μl of the brain homogenate was mixed (1+1 v/v/) with 20 μl mouse blank plasma. Then 80 μl acetonitrile containing the internal standard (300 ng/ml Diazepam) were added. Samples were vigorously shaken and centrifuged for 10 minutes at 6000 g and 20° C. The particle free supernatant was diluted 1:1 with water. An aliquot was transferred to 200 μl sampler vials and subsequently subjected to LC MS with an injection volume of 20 μl. Mass spectrometry was performed on a TSQ Quantum Discovery Max triple quadrupole mass spectrometer equipped with an electrospray (ESI) interface (Thermo Fisher Scientific, USA) connected to a PC running the standard software Xcalibur 2.0.7. […]

[4] = test system: PPARγ target genes (GLUT4, Adiponectin, FABP4, LPL); test: qPCR of PPARγ target genes in human primary adipocytes; format: cell-based
Method: as §1

[5] = Water solubility approximation; format: physicochemical; settings: aqueous with cosolvent or surfactant or cyclodextrin, kinetic from dmso stock; PBS pH 7.4, 0.01% Polysorbate 20, 1% DMSO; precipitation at 650 nm; read-out: w.s. (water solubility)
Method: PBS at pH 7.4 with 0.01% Polysorbate 20 (Tween) was combined with 1% of a DMSO solution of the inquired compound in a 96-well transparent flat bottom microtiter plate. Precipitation of the compound was measured at 650 nm with a Tecan Infinite 200 (Tecan Group Ltd, Mannedorf, Switzerland).

HepG2 cells = test: WST-1 cytotoxicity assay; format: cell-based; settings: up to a concentration of 30 μM; 48 hours
Method: The WST-1 assay (Roche Diagnostic GmbH, Mannheim, Germany) was used to determine the cell viability after treatment with the compounds. For this purpose, Hela and HepG2 cells were seeded each in 96-well plates at a density of 1×10^4 per well in DMEM with Phenolred and in presence of 10% FCS. After 24 hours the medium was changed. Fresh DMEM with 10% FCS was added and the cells were treated with the compounds for 48 hours. Cell viability was assessed according to the manufacturer's protocol using a microplate reader (infinity M200, Tecan Group Ltd., Crailsheim, Germany). All experiments were performed at least in triplicate.

mFFA1 = molecular target: T3, mFFA1 (Mus musculus, UniProt Q76JU9); test: IP1 accumulation in HEK293 cells stably expressing mFFA1; format: cell-based; settings: read-out: pEC50 (IP1 accumulation) (converted)
T3 construct: expressed in transfected cells; host or cells: Flp-In T-REx 293 (HEK293), doxycycline-induced
Method: (§2) Stably transfected Flp-In™ T-REx™ 293 cells (Invitrogen) were cultured in Dulbecco's modified Eagles's medium (DMEM) containing 10% (v/v) fetal bovine serum (FBS), penicillin (100 U/mL), streptomycin ([…]), Hygromycin B (100 μg/mL) and Blasticidin (15 μg/mL) at 37° C. and 5% CO2. All experiments were carried out after inducing receptor expression with 1 μg/mL doxycycline for approximately 18 hours, according to manufacturer's instructions (Invitrogen).
(§3) Compound activity on the Gq coupled FFA1 receptor constructs was assessed by measuring intracellular level of inositolmonophosphate (IPI) using the HTRF®-IP-One kit (Cisbio International) according to manufacturer's instructions. Briefly, 10,000 receptor expressing cells were seeded into a 384 well microplate and incubated 20 minutes at 37° C. […] Data analysis and nonlinear regression curve fitting were carried out using the GraphPad Prism® software v5.04 (Graphpad Software).

[6] = test system: PPARγ target genes (GLUT4, Adiponectin, FABP4, LPL); test: qPCR of PPARγ target genes in differentiated 3T3-L1 cells; format: cell-based, murine; settings: 1-10 μM; compared to rosiglitazone 2 μM
Method: 3T3-L1 cells were subcultured in DMEM containing 10% newborn calf serum in a humidified atmosphere at 37° C., 5% CO2. […] Briefly, cells were seeded in 6-well plates (2.5×10^6/well). Differentiation was started at day 3 by addition of 1 μg/ml insulin, 0.25 dexamethasone and 0.5 mM isobutylmethylxanthine in DMEM supplemented with 10% fetal calf serum. At day 5 medium was replaced by medium containing only insulin for 2 more days. After this, cells were kept for lipid droplet accumulation in basal medium without additions until day 15. […] Differentiation of 3T3-L1 cells was confirmed by Oil Red 0 staining. Cells were washed with PBS and subsequently fixed for 60 minutes with a formaldehyde solution (4% in PBS). After this, cells were rinsed with 60% isopropanol and incubated with Oil Red 0 solution (0.3%) for 120 minutes.
3T3-L1 cells or homogenized mouse tissues were lysed using TRIzol® reagent (Ambion, life technologies, Carlsbad, USA) and mRNA was isolated following the manufacturers protocol. DNA contaminations were digested using DNAse (DNase I, RNase-free Kit; Thermo Scientific, Waltham, USA) and mRNA concentrations were measured with a NANODROP2000 spectrophotometer (Thermo Scientific, Waltham, USA). […] All samples were measured in triplicates and were analyzed using the ΔΔCT method.

recombinant human sEH = molecular target: T4, recombinant human sEH (Homo sapiens, UniProt P34913); test: biochemical; settings: read-out: IC50 sEH (converted)
T4 sequence (P34913 1-555): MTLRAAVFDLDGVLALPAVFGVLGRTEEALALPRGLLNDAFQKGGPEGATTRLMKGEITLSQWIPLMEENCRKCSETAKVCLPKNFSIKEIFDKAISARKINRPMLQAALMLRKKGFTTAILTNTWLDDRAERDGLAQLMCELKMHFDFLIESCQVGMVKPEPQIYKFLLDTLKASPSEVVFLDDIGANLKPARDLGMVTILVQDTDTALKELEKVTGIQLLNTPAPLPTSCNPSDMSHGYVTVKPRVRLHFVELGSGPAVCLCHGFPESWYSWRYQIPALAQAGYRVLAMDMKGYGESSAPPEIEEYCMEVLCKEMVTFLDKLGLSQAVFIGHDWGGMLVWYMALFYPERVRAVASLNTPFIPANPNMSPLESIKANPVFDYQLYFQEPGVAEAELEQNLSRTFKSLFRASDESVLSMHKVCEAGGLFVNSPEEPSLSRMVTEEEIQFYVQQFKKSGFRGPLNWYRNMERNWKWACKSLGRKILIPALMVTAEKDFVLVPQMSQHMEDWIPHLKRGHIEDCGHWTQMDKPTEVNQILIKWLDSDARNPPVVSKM

PPARγ target gene CD36 = test: CD36 expression in mouse liver (qPCR); format: in vivo; settings: single p.o. 30 mg/kg bw, 8 h; compared to non-treated mice
Method: 3T3-L1 cells or homogenized mouse tissues were lysed using TRIzol® reagent (Ambion, life technologies, Carlsbad, USA) and mRNA was isolated following the manufacturers protocol. DNA contaminations were digested using DNAse (DNase I, RNase-free Kit; Thermo Scientific, Waltham, USA) and mRNA concentrations were measured with a NANODROP2000 spectrophotometer (Thermo Scientific, Waltham, USA). Subsequently, reverse transcription was performed using the High Capacity RNA-to-cDNA Kit (Applied Biosystems, Foster City, USA). PCR was performed using specific primers for GLUT-4, FABP-4, LPL, adiponectin and CD36 (shown under supporting informations) with a StepOnePlus Real-Time PCR System (Applied Biosystems, Foster City, USA). NoNo (3T3-L1) and β-Actin (mouse tissue) were used as reference genes. All samples were measured in triplicates and were analyzed using the ΔΔCT method.

hFFA1 = molecular target: T5, hFFA1 (Homo sapiens, UniProt O14842); test: IP1 accumulation in HEK293 cells stably expressing hFFA1; format: cell-based; settings: read-out: pEC50 (IP1 accumulation) (converted)
T5 construct: expressed in transfected cells; host or cells: Flp-In T-REx 293 (HEK293), doxycycline-induced
Method: as §2, §3

SHROB rats = test system: SHROB rats
Method: SHROB were treated with RB394 (10 mg/kg/d, p.o.; […]) for 8-weeks.
Metabolic syndrome (MetS) is a cluster of symptoms including hypertension, hyperglycemia, hypertriglyceridemia and obesity. […] The inventors hypothesized that the development of a dual modulator (a drug that combines two pharmacophores) could treat more than one symptom of MetS and prevent renal injury. […] The inventors synthesized a novel dual sEH inhibitor-PPAR-γ agonist (sEHi/PPAR-γ), RB394 and investigated its efficacy in a rat model of MetS (see FIG. 21). Three groups of rats were utilized; Group 1: Wister Kyoto (WKY)+Vehicle (n=6); Group 2: Spontaneously Hypertensive Obese (SHROB)+Vehicle (n=5); Group 3: SHROB+RB394 (10 mg/kg/d p.o.; n=5). RB394 or vehicle treatments were administered for 56 days, blood pressure measured, and urine and kidney tissues collected at the end of treatment period. […] Kidney injury was assessed from albuminuria, and also from histopathological analysis of renal tubular cast formation, collagen formation and glomerular injury using Periodic Acid Schiff and Picro Sirius Red staining.
The Medical College of Wisconsin Institutional Animal Care and Use Committee according to the National Institutes of Health Guidelines for Care and Use of Laboratory Animals approved all animal studies. Eight to nine-week-old male Wistar-Kyoto (WKY), and SHROB were purchased from Charles River Laboratories (Wilmington, Mass., USA). Animals were housed in the Biomedical Resource Center at Medical College of Wisconsin with a 12 hour light-dark cycle and free access to tap water along with rat chow. WKY rats (n=6) were used as a control group as a comparison for disease progression. SHROB rats were divided into 2 groups. Group 1 received vehicle (n=5) and Group 2 received RB394 (10 mg/kg/d p.o.; n=5) for 8 weeks. Rats were weighed and systolic blood pressure was measured by tail-cuff plethysmography.
Intra-peritoneal glucose tolerance test was carried out during the 8-week treatment protocol in rats that were fasted overnight and injected with glucose (2 g/kg i.p.). Blood samples were collected from the tail vein before and at different time points after glucose injection. The tail vein blood glucose levels were measured using a glucometer LifeScan (Miltipas, Calif., USA).
Urinary biochemical analysis was done using commercially available ELISA kits; albumin and from Exocell (Philadelphia, Pa.). Rats were anesthetized using isoflorane and plasma collected from the artery. Triglyceride, cholesterol, protein and creatinine assay kits were from Cayman (Ann Arbor, Mich., USA), and free fatty acids from Zen-Bio Inc. (Research Triangle Park, N.C.). Blood glucose levels from the tail vein were measured using a glucometer.
The kidney was excised and immersion-fixed in 10% neutral buffered formalin and paraffin embedded. The embedded kidney and pancreas sections were cut into 4 μm slices for use in histology. Formalin-fixed paraffin-embedded tissue slices were deparaffinized, re-hydrated, and kidney tissue slices were stained with Periodic Acid-Schiff (PAS) and Masson's Trichorme. Glomerulosclerosis and mesangial matrix expansion were blindly scored from kidney sections stained with PAS staining using the following numeric scale: 0=no damage; +1=very mild; +2=mild; +3=moderate and +4=severe. Two observers in a blinded fashion conducted histological analysis at a magnification of ×200 using Nikon NIS Elements Software (Nikon Instruments Inc., Melville, N.Y., USA). Proteinaceous cast in the kidney was also determined in PAS stained kidney sections at magnification of ×200 using Nikon NIS Elements Software. The percentage area positive for proteinaceous cast was calculated from the mean of eight cortical and five medullary fields for each animal. Fibrosis in the kidney was determined in kidney sections stained with Masson's Trichorme at a magnification of ×200.

[7] = SHROB + RB394 10 mg/kg/d p.o., 8 weeks
[8] = SHROB + RB394 10 mg/kg/d p.o., 56 days

T1 sequence (Q07869 239-466): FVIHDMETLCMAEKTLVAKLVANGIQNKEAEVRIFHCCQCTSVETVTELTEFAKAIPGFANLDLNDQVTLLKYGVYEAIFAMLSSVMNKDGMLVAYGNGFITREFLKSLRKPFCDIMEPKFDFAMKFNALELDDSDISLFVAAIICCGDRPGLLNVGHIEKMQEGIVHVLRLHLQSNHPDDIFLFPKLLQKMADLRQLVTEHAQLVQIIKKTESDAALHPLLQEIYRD
T5 sequence (O14842 whole entry): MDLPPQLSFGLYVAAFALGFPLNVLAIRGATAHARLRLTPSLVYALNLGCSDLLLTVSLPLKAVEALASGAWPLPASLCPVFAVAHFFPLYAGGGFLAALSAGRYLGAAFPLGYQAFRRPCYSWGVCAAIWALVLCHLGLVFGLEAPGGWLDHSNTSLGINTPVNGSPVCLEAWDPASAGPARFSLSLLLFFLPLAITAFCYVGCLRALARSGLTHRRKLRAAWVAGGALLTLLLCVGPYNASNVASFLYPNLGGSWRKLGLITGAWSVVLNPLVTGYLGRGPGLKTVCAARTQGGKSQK
T2 sequence (Q03181 211-439): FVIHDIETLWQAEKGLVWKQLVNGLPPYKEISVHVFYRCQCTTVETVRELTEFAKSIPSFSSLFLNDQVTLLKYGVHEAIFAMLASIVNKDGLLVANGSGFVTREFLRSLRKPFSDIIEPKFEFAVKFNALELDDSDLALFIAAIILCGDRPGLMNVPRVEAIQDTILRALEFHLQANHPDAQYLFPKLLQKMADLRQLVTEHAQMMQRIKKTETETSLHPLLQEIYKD
T3 sequence (Q76JU9 whole entry): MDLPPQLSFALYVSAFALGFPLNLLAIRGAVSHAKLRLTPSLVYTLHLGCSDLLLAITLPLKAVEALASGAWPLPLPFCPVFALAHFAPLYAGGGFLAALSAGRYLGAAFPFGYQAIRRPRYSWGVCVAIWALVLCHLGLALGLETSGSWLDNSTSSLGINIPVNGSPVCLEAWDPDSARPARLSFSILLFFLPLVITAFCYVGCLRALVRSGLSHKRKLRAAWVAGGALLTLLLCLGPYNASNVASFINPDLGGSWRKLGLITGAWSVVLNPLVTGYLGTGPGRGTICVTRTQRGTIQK

CCC(Cc1ccc(C(=O)NCc2ccccc2C(F)(F)F)cc1)C(=O)O (stereo not drawn) [Compound 1c, 2-Ethyl 3-[4-(N-((2-trifluoromethyl)benzyl)benzamide)]propionic acid]
adipocyte differentiation (Oil-Red O) (3T3-L1 fibroblasts): dose-dependent effect
EC50 PPARα (PPARα; i.a. = inactive): i.a.
compound remaining intact after 1 h [1]: 92%
EC50 PPARδ (PPARδ): i.a.
adipocyte differentiation (Oil-Red O) [2]: dose dependent (1-10 μM) effect
AUC0→∞ [3]: 15847 ng·h/mL
tmax [3]: 30 min
upregulation of GLUT4 expression ([4]; 1c 10 μM): comparable to the rosiglitazone (2 μM) control
upregulation of Adiponectin, FABP4 and LPL ([4]; 1c stimulation): only minor effects
solubility [5]: 100 µM (≈ 37.9 µg/mL)
cell viability of HepG2 cells (WST-1) (HepG2 cells): did not impair cell viability
EC50 (mFFA1): 4.9 µM
expression of PPARγ target genes (GLUT4, Adiponectin, FABP4, LPL) [6]: dose-dependently activated expression of all target genes analysed
IC50 (recombinant human sEH): 1.6 ± 0.2 µM
increase of CD36 expression in liver (PPARγ target gene CD36): at least 2 fold
EC50 (hFFA1): 8.32 µM

O=C(Nc1ccc(I)cc1)NC1CCCCC1 [CIU, N-cyclohexyl-N′-iodophenyl urea, reference compound]
adipocyte differentiation (Oil-Red O) (3T3-L1 fibroblasts): able to start adipocyte differentiation
adipocyte differentiation (Oil-Red O) [2]: not able to start differentiation

CCC(Cc1ccc(C(=O)NCc2ccc(OC)cc2C(F)(F)F)cc1)C(=O)O (stereo not drawn) [Compound 14c, 2-Ethyl 3-14-(N-(4-methoxy(2-trifluoromethyl)benzyl)benzamide)1 propionic acid]
PPARα activation @10 μM (PPARα; at 10 μM, compared to GW7647 1 μM): 29%
compound remaining intact after 1 h [1]: 96%
EC50 PPARδ (PPARδ): n.t. i.a. i.a. n.t.
solubility [5]: 500 µM (≈ 205 µg/mL)
cell viability of HepG2 cells (WST-1) (HepG2 cells): did not impair cell viability
EC50 (mFFA1): 23.4 µM
body weight gained more than vehicle treated SHROB (SHROB rats; 8 weeks): approximately 40 g
systolic blood pressure lower than vehicle treated SHROB (SHROB rats; 8 weeks): approximately 44 mmHg
Body Weight (SHROB rats; [7]): 600 ± 8 g
Fasting Blood Glucose (SHROB rats; [7]): 83 ± 7 mg/dL
Free fatty Acid (SHROB rats; [7]): ^#322 ± 24 μM
Serum Cholesterol (SHROB rats; [7]): #4.0 ± 0.7 mM
Triglyceride (SHROB rats; [7]): ^#133 ± 18 mg/DL
albuminuria (SHROB rats; [8]): 59 ± 11 mg/day
reduction of glomerular injury (SHROB rats; [8]): 45%
reduction of renal cast and collagen formation (SHROB rats; [8]): 40-50%
reduction of renal inflammation (infiltrating immune cells in the kidney) (SHROB rats; [8]): 20%
EC50 (hFFA1): 14.1 µM
